Measured values: patent EP3454861B1, “BENZOXAZINE OR QUINAZOLINE DERIVATIVES FOR USE IN THE TREATMENT OF ALZHEIMER'S DISEASE” (Biocodex, priority 2016, dated 2017)

Assays:
[1] = tested on: modèle murin de maladie d'Alzheimer par administration du peptide amyloïde β25-35; experiment: Passive avoidance test (long-term contextual memory), retention session, Aβ25-35 mouse model; type: in vivo, souris; conditions: Aβ25-35 9 nmol ICV, day 10
Text: Le 1^er jour : une version « mélangée » (scrambled) du peptide amyloïde β25-35 (Sc.Aβ, témoin négatif) ou le peptide amyloïde β25-35 (Aβ25-35) est injecté par voie intra-cérébroventriculaire (ICV) (le peptide Aβ25-35 provoque l'intoxication cellulaire). Entre le 1^er jour et le 10^ème jour, les traitements sont administrés une fois par jour par voie intrapéritonéale (IP).

[2] = tested on: neurones corticaux; experiment: Survival of cortical neurons after Aβ1-42 intoxication (MAP-2 immunostaining); type: cell-based, rats; conditions: 1 h pre-incubation, Aβ1-42 10 µM, 24 h
Description: Des neurones corticaux de rats sont mis en culture comme dans la méthode décrite par Singer (1999) J. Neurosci. 19:2455-2463. Des rats femelles enceintes de 15 jours sont tuées par dislocation des cervicales (Rats Wistar, Janvier) et le fœtus est retiré de l'utérus. Les cortex sont prélevés et placés dans un milieu glacé de Leibovitz (L15, Panbiotech, Réf : P04-27055, lot : 9310614) contenant 2% de pénicilline (10 000 U/ml) et de streptomycine (10 mg/ml) (PS, Panbiotec, Réf : P06-07100, lot : 48101114) et 1% de sérum-albumine bovine (BSA, Panbiotech, Réf : P06-1391100, lot : H140603). Les cortex sont dissociés par trypsination (0,05% Panbiotech, Réf : P10-023100, lot : 5890314) pendant 20 minutes à 37°C. La réaction est stoppée par addition d'un milieu Eagle modifié de Dulbecco (DMEM, Panbiotech, réf P04-03600, lot : 9670913) contenant de la DNase I grade Il (0,1 mg/ml Panbiotech, Réf : P60-37780100, lot : H140508) et 10 % de sérum de veau fœtal (FCS, Invitrogen, Réf : 10270 à 098, lot : 41Q4120K). Les cellules sont dissociées mécaniquement par 3 passages à travers une pipette de 10 ml. Les cellules sont ensuite centrifugées à 515 g pendant 10 minutes à 4°C. […]

CCNC1=Nc2ccc(Cl)cc2C(C)(c2ccccc2)O1 (centres unmarked) [Etifoxine, chlorhydratede 6-chloro-2-éthylamino-4-méthyl-4-phényl-4H-[3,1]benzoxazine]
temps de fuite lors de la session de rétention, Moyenne ([1]; Etifoxine 25 mg/kg IP once daily): 22,4 ± 2,4%
temps de fuite lors de la session de rétention, Moyenne ([1]; Etifoxine 50 mg/kg IP once daily): 21,6 ± 3,0%
temps de latence lors la session de rétention, Moyenne ([1]; Etifoxine 12,5 mg/kg IP once daily): 208,1 ± 17,4%
survie des neurones ([2]; étifoxine 3 µM, p <0,05): restaure de manière significative la survie des neurones
survie des neurones ([2]; étifoxine 10 µM, p <0,01): restaure de manière significative la survie des neurones
